pIC50: −log10 of the molar value.
Assay: Inhibition of His-tagged human PDK1 expressed in Sf21 cells

Compound `CCCCCCOC(=O)[C@@]1(O)C[C@H]2O[C@]1(C)n1c3ccccc3c3c4c(c5c6ccccc6n2c5c31)C(=O)NC4` [KT-5720] has a pIC50 of 6.52.
